According to ChEMBL document CHEMBL1201862, “PubChem BioAssay data set” (2004):
Calls of active or inactive are those of the source.

Columns and labels:
SUMO-activating enzyme = SUMO-activating enzyme (Homo sapiens, UniProt Q9UBT2); experiment: inhibitors of in vitro SUMOylation cascade, primary screen, biochemical, HTRF, uHTS (AID 2006); format: protein-complex assay
[1] = microbe, parasite or virus in culture; format: functional; settings: Mycobacterium tuberculosis
Vero = Vero cell cytotoxicity, cytotoxicity control for flavivirus capping enzyme inhibitors (AID 588742); format: functional; settings: Chlorocebus sabaeus
Jurkat = experiment: SAR Analysis of small molecule inhibitors of T-cell specific antigen receptor-induced NF-kB activation in a Jurkat cell line using a luminescence assay - Set 2. [Related pubchem assays (depositor defined):AID435003, AID435012, AID465]; format: functional, cell-based; settings: Homo sapiens
HEK293 = experiment: inhibitors of LMP1-driven NF-kB reporter, dose response, cell-based, HEK293, luciferase, cherry-pick (AID 588343); format: functional; settings: Homo sapiens
BJ [2] = experiment: cells; format: functional, cell-based; settings: Homo sapiens
BJ [3] = experiment: cytotoxicity toward BJ-TERT fibroblasts, dose response, cell-based, RAS-independent, luminescence (AID 1933); format: functional; settings: Homo sapiens
[4] = molecular target: T1, Small ubiquitin-related modifier 1 (Homo sapiens, UniProt P63165); experiment: inhibitors of SUMO1 partner interactions, dose response, biochemical, FRET (AID 624383); format: functional; settings: read-out: IC50_Mean
[5] = Concentration-dependent survival of SW480 colon cancer line, luminescence detection with CellTiter-Glo, half-maximal inhibitory concentration (AID 1117338); format: functional
[6] = molecular target: Induced myeloid leukemia cell differentiation protein Mcl-1 (Homo sapiens, UniProt Q07820); format: functional
[7] = molecular target: T2, Neuropeptide Y receptor type 1 (Homo sapiens, UniProt P25929); experiment: Fluorescence-based counterscreen for agonists of NPY-Y2: cell-based high-throughput dose response assay for agonists of NPY-Y1.; format: functional
T2 sequence (P25929 whole entry): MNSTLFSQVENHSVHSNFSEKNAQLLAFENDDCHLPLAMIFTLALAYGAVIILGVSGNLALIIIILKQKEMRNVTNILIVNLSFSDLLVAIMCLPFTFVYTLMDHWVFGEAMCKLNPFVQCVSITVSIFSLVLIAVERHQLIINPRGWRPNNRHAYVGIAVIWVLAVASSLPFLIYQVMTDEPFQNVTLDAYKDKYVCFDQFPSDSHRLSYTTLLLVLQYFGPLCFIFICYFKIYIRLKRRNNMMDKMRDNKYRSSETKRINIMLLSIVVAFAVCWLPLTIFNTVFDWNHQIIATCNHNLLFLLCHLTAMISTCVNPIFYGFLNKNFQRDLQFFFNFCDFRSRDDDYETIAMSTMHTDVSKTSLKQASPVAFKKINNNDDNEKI

Large T antigen = Large T antigen (Simian virus 40, UniProt P03070); experiment: A confirmatory biochemical assay using the ADP-Hunter methodology, purified TAg, and ATP to quantify activity of synthesized compounds that inhibit the ATPase activity of Tag (3). [Related pubchem assays (depositor defined):AID1903, AID1909, AID2102, AID2501, AID2615, AID2775, AID435001, AID449729]; set-up: species or system Betapolyomavirus macacae
Fatty acid synthase = Fatty acid synthase (Homo sapiens, UniProt P49327); experiment: FAS thioesterase domain inhibitors, dose response, biochemical, kinetic fluorescence intensity (AID 624326); format: functional;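 further: rate of fluorescence rise from hydrolysis of a fluorogenic O-methyl fluorescein ester substrate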
[8] = molecular target: T1, Small ubiquitin-related modifier 1; experiment: inhibitors of SUMO1 peptide binding, dose response, biochemical, fluorescence polarization, uHTS hits (AID 624382); format: functional; settings: read-out: IC50_Mean
[9] = HeLa 2N DNA content increase, dose response, cell-based, IC50 (AID 1117349); format: functional
Aminopeptidase N = molecular target: T3, Aminopeptidase N (Plasmodium falciparum FcB1/Columbia, UniProt O96935); experiment: P. falciparum M1AAP inhibitors, biochemical, fluorogenic H-Leu-NHMec substrate, 1536-well (AID 1445); set-up: species or system Plasmodium falciparum 3D7, 3D7
T3 sequence (O96935 whole entry): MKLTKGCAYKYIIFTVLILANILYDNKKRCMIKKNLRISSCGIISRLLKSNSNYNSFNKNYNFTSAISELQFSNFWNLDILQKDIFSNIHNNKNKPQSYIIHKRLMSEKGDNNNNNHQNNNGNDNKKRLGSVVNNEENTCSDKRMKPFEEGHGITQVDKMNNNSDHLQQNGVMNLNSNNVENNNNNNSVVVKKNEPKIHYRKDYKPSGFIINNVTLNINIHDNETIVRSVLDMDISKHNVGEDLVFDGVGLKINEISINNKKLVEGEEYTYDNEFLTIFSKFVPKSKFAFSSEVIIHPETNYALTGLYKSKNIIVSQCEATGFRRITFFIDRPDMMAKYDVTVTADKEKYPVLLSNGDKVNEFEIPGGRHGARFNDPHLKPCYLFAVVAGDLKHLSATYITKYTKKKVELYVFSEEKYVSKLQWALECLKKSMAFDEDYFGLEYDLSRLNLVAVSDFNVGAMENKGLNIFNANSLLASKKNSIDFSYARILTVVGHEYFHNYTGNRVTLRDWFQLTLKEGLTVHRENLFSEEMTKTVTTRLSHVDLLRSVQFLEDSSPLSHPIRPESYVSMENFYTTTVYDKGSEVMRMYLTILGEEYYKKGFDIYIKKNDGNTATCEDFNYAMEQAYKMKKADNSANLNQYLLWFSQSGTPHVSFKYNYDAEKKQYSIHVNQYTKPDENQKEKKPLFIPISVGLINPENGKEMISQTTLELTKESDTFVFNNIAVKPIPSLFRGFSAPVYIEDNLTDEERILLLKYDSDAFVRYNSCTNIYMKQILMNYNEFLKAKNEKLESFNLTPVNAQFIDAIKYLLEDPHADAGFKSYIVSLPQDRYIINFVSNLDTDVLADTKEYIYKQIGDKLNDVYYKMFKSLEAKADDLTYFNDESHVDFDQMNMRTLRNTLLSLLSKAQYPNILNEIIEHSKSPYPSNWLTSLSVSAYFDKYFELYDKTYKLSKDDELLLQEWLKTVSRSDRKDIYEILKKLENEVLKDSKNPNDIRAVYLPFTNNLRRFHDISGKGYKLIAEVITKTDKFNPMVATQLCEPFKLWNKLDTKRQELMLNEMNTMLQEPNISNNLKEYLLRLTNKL

T1 sequence (P63165 whole entry): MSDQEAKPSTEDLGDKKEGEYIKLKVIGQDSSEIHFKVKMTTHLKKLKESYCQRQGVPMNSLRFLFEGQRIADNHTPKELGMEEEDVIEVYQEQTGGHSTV
Chain of Large T antigen (P03070 whole entry, the tested form may be a part): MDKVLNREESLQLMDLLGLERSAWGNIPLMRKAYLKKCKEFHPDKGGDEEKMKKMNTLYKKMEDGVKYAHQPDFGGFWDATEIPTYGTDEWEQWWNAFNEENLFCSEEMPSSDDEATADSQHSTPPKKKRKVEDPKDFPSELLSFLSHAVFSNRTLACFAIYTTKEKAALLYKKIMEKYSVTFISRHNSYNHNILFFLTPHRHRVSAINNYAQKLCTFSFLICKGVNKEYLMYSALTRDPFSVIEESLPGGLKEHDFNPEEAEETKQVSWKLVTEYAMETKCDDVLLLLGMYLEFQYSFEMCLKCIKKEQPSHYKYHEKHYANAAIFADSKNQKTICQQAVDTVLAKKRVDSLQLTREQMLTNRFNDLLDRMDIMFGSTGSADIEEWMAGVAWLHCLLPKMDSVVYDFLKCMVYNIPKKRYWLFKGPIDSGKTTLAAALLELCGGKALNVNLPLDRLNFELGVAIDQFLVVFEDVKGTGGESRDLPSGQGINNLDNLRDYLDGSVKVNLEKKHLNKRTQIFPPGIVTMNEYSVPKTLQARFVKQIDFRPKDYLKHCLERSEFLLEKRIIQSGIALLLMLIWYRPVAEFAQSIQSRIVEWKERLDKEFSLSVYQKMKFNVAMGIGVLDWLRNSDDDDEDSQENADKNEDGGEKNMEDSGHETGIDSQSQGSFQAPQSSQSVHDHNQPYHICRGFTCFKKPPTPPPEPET
Chain of Fatty acid synthase (P49327 whole entry, the tested form may be a part): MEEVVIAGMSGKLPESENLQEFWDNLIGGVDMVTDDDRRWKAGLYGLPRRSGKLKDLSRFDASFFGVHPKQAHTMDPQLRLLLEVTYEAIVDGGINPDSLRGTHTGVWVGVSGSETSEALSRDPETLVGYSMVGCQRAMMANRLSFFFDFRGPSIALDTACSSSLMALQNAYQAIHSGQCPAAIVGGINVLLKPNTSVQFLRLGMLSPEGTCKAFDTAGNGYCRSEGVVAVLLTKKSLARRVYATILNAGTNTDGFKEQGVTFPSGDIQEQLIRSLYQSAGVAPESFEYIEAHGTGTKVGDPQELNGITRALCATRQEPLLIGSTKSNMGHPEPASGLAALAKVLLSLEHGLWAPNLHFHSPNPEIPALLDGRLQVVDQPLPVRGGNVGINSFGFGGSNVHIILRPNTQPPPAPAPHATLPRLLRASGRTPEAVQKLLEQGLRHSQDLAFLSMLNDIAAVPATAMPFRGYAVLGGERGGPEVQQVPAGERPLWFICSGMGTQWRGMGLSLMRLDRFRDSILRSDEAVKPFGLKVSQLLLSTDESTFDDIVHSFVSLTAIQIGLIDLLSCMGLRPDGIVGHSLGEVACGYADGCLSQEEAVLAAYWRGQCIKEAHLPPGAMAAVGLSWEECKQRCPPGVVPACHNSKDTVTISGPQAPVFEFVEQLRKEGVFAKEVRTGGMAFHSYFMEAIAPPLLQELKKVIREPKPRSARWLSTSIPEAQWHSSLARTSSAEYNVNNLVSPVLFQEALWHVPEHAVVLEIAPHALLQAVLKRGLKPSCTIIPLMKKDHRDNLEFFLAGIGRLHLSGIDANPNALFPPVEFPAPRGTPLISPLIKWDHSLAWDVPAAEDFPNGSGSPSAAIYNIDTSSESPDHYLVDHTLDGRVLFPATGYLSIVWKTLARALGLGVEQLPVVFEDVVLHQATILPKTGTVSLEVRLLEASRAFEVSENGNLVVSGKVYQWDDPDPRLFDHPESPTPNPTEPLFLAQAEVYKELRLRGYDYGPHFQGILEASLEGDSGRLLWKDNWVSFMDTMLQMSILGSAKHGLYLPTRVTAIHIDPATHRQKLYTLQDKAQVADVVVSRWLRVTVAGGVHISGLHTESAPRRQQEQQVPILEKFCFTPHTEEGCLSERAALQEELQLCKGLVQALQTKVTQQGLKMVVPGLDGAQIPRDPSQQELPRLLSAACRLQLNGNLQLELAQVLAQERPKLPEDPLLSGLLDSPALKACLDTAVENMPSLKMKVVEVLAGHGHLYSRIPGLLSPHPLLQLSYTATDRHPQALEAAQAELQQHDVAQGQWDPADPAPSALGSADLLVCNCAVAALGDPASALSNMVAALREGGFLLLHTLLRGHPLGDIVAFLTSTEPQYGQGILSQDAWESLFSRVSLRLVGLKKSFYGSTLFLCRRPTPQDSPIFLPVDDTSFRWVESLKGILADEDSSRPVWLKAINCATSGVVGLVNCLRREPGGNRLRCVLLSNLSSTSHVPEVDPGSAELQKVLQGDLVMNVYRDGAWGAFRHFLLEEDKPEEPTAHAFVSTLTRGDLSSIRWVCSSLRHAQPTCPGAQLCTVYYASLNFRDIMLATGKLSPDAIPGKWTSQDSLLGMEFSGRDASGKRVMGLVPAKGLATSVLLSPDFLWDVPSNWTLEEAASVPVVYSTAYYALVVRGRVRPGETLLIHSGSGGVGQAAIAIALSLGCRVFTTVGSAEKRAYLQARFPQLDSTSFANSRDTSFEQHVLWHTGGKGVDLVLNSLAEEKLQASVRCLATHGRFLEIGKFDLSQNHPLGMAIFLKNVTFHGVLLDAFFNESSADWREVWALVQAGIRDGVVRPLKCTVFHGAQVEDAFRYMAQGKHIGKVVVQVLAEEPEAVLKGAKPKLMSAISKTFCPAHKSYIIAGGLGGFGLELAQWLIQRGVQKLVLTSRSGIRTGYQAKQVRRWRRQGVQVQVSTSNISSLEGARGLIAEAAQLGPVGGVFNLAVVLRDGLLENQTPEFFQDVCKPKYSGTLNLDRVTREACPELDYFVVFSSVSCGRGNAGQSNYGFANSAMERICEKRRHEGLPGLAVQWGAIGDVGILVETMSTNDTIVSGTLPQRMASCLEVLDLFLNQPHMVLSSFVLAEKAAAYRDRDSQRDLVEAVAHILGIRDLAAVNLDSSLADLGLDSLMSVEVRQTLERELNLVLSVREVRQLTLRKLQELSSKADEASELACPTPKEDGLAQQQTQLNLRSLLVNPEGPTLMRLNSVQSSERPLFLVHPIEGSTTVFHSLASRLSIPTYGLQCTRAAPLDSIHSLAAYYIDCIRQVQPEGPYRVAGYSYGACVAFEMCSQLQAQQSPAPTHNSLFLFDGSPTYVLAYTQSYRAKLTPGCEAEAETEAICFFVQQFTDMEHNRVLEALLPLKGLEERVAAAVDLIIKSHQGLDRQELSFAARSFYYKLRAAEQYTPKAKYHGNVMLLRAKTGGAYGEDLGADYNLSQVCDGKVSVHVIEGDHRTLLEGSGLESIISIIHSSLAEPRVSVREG
Chain of SUMO-activating enzyme (Q9UBE0 whole entry): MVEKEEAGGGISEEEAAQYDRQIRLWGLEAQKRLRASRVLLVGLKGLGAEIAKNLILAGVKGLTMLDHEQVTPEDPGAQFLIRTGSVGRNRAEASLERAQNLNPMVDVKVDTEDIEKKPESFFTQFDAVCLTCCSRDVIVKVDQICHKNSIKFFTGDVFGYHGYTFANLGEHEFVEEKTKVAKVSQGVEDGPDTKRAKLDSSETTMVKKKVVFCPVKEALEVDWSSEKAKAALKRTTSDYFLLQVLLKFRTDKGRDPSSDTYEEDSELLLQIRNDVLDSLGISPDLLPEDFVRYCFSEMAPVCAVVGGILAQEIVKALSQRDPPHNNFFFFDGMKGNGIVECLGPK
Chain of SUMO-activating enzyme (Q9UBT2 whole entry): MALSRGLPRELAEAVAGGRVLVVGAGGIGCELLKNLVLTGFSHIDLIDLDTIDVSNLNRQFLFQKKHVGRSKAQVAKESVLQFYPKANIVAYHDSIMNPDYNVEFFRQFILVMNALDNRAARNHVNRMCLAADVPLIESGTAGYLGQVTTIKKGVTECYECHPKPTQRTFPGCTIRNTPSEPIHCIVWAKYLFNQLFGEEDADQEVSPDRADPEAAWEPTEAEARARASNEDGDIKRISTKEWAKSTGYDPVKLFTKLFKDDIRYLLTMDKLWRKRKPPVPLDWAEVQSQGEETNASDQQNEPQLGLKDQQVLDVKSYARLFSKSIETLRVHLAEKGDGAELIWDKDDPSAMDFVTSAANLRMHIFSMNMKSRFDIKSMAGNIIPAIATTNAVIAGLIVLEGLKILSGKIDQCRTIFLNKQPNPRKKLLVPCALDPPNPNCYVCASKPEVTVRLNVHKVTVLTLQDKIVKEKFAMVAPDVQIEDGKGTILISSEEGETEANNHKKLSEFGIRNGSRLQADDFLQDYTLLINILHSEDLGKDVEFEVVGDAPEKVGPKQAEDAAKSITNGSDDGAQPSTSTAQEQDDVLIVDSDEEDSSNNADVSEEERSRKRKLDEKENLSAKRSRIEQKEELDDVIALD
Chain of Induced myeloid leukemia cell differentiation protein Mcl-1 (Q07820 whole entry): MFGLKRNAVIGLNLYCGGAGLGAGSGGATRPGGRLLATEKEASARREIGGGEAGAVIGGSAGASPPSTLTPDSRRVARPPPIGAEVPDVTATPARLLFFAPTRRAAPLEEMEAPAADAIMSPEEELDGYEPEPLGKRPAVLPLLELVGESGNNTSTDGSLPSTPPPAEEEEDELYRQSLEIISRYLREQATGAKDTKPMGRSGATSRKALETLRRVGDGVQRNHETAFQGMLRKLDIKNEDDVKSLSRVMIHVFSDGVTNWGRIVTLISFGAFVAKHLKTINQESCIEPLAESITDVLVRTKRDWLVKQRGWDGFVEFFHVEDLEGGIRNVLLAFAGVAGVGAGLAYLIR

Which IC50 (SUMO-activating enzyme) does the source give for `N#Cc1c(N2CCCCC2)nc(N)c2c(N)nc(SCC(=O)O)cc12` here?
The IC50 was 3.92 µM (active).

For `CC1(C)Cc2ccccc2C2=NNC(=O)C2=N1`, which CC50 [1] is on record?
Its CC50 is 31.2 µM (active).

With `CCc1ccc(S(=O)(=O)Nc2cc(SCC(=O)O)c(O)c3ccccc23)cc1` as the compound, how does the CC50 (Vero) read?
Its CC50 is 33.6 µM (active).

What does the source list for `CCCC(=O)NC(c1ccc(C(C)C)cc1)c1ccc2cccnc2c1O` (stereo unspecified)?
IC50 (Jurkat): 2.58 µM (active); AC50 (HEK293): 5.04 µM (active); EC50 (BJ [2]): 2.91 µM (active); EC50 (BJ [3]): 2.3 µM (active)

Which IC50 [4] does the source give for `Oc1c(Cl)cc(Cl)c(Cl)c1Cc1c(O)c(Cl)cc(Cl)c1Cl` [HEXACHLOROPHENE] here?
Its IC50 is 38.9 µM (inactive).

What about the IC50 [5] of the same compound?
The IC50 was 0.003 µM (active).

And the IC50 [6]?
The IC50 was 14.8 µM (active).

And the EC50 [7]?
The EC50 was 9.8 µM (active).

And the IC50 (Large T antigen)?
The IC50 was 34.5 µM (active).

And the IC50 (Fatty acid synthase)?
Its IC50 is 5.68 µM (active).

And the IC50 [8]?
Its IC50 is 5.63 µM (active).

And the IC50 [9]?
Its IC50 is > 10 µM (inactive).

What about the IC50 (Aminopeptidase N) of the same compound?
The IC50 was 58 µM (active).
